Laboratory results: patent publication US5756450A, “Water soluble monoesters as solubilisers for pharmacologically active compounds and pharmaceutical excipients and novel cyclosporin galenic forms” (Novartis Corporation, priority 1987, dated 1998)

How the values were obtained:
[1] = Solubilisation in aqueous 10% saccharose monolaurate L-1695 solution (Example 12); format: physicochemical; details: aqueous solution of saccharose monolaurate L-1695, 10% by weight
Excerpt: A solid solution is obtained by removing the water by freeze drying.

[2] = Water solubility of the active compound; format: physicochemical

SMILES	amount that can be solubilised per ml [1]	water solubility [2]
CC(=O)[C@H]1CC[C@H]2[C@@H]3CCC4=CC(=O)CC[C@]4(C)[C@H]3CC[C@]12C [Progesterone]	3 mg per ml	
Cc1ccc2c(-c3ccccc3)nc(=O)n(C(C)C)c2c1 [Proquazone, 1-isopropyl-7-methyl-4-phenyl-2(1H)-quinazolinone]	3 mg per ml	below 0.1 g/100 ml
